For one assay, the target named is T1, human PDE5 (Homo sapiens, UniProt O76074).
T1 construct: from tissue; host or cells: human platelets from fresh donor blood (platelet lysate)
Briefly: Inhibition of PDE5 activity (platelet lysate, SPA assay). The class given is biochemical. The note with it: 0.5 μM cGMP, read-out: PDE5 Inhibitory values measured as -logIC50 (converted). The protocol:
Method for Measuring Inhibition of PDE5 Activity
As a source for human PDE5, platelets were used. For that purpose, 150 ml fresh blood from human donors anticoagulated with citrate [final concentration 0.3% (w/v)] was centrifuged at 200 g for 10 min to obtain the so-called platelet-rich-plasma (PRP) as a supernatant. […] After centrifugation (1,400 g, 10 min) the cell pellet was resuspended in 3 ml homogenization buffer (NaCl 140 mM, KCl 3.8 mM, EGTA (ethylene glycol tetraacetic acid) 1 mM, MgCl2 1 mM, Tris-HCl 20 mM, beta-mercaptoethanol 1 mM, pH 8.2) plus protease-inhibitor mix resulting in final concentrations of 0.5 mM Pefablock (Roche), 10 μM Leupeptin, 5 μM Trypsine inhibitor, 2 mM Benzamidin and 10 μM Pepstatin A. The suspension was sonicated and thereafter centrifuged for 15 min at 10,000 g. The resulting supernatant (platelet lysate) was used for enzymatic assays.
PDE5 activities were measured in a 96-well platform using SPA (scintillation proximity assay) yttrium silicate beads (RPNQ1050 from GE Healthcare). In a first step the PDE activity operated hydrolysis of either [^3H] cGMP (substrate) into [^3H] 5′GMP. In a second step substrate and product were distinguished following addition of SPA yttrium silicate beads. Indeed, in the presence of zinc sulphate the linear [^3H] […] Close proximity of bound [^3H] […] The test volume was 100 μl and contained 20 mM Tris buffer (pH 7.4), 0.1 mg of BSA (bovine serum albumin)/ml, 5 mM Mg^2+, 1 μM motapizone (PDE3 Inhibitor), 10 nM PDE2 inhibitor 2-(3,4-dimethoxybenzyl)-7-[(1R,2R)-2-hydroxy-1-(2-phenylethyl)propyl]-5-methylimidazo[5,1-f][1,2,4]triazin-4(3H)-one, 0.5 μM cGMP (cyclic guanosine monophosphate) (including about 50,000 cpm of [3H]cGMP as a tracer) (substrate), 1 μl of the respective compound dilution in dimethylsulfoxide (DMSO) and sufficient PDE5-containing platelet lysat (10,000×g supernatant, see above) to ensure that 10-20% of the cGMP was converted under the said experimental conditions. […] After a preincubation of 5 min at 37° C., the reaction was commenced by adding the substrate (cGMP) and the assay was incubated for a further 15 min. The reaction was terminated by adding SPA beads (50 μl). In agreement with the manufacturer's instructions, the SPA beads had previously been resuspended in water, but were then diluted 1:3 (v/v) in water. This diluted solution also contained 3 mM 8-methoxymethyl-3-isobutyl-1-methylxanthine (IBMX) to ensure a complete block of PDE activity. Once the beads were sedimented (>30 min), the MTP's were analyzed in commercially available luminescence detection devices. The corresponding IC50 values of the compounds for inhibition of PDE activity were determined from the concentration-effect curves by means of non-linear regression.
(§1) The numbers of the compounds correspond to the numbers of the examples.

The next assay has as its target T2, PDE4B1 (Homo sapiens, UniProt Q07343).
T2 construct: made in house; host or cells: SF21 insect cells (baculovirus; virus made in SF9 cells, pCR-Bac vector)
Briefly: Inhibition of PDE4 activity (PDE4B1, SPA assay). The class given is biochemical. The note with it: recombinant PDE4B1, 0.5 μM cAMP; read-out: PDE4B1 Inhibitory values measured as -logIC50 (converted). How it is done:
Method for Measuring Inhibition of PDE4 Activity
The PDE4B1 (GB no. L20966) was a gift of Prof. M. Conti (Stanford University, USA). It was amplified from the original plasmid (pCMV5) via PCR with primers Rb18 (5′-[…]-3′) and Rb10 (5′-[…]-3′) and cloned into the pCR-Bac vector (Invitrogen, Groningen, NL).
The recombinant baculovirus was prepared by means of homologous recombination in SF9 insect cells. The expression plasmids were cotransfected with Baculo-Gold DNA (Pharmingen, Hamburg) using a standard protocol (Pharmingen, Hamburg). Wt virus-free recombinant virus supernatants were selected using plaque assay methods. After that, high-titre virus supernatants were prepared by amplifying 3 times. PDE4B1 was expressed in SF21 cells by infecting 2×10^6 cells/ml with an MOI (multiplicity of infection) between 1 and 10 in the serum-free SF900 medium (GIBCO Life Technologies, Karlsruhe, Germany) The cells were cultured at 28° C. for 48-72 hours, after which they were pelleted for 5-10 min at 1000×g and 4° C.
The SF21 insect cells were resuspended, at a concentration of approx. 10^7 cells/ml, in ice-cold (4° C.) homogenization buffer (20 mM Tris, pH 8.2, containing the following additions: 140 mM NaCl, 3.8 mM KCl, 1 mM EGTA, 1 mM MgCl2, 10 mM β-mercaptoethanol, 2 mM benzamidine, 0.4 mM Pefablock, 10 μM leupeptin, 10 μM pepstatin A, 5 μM trypsin inhibitor) and disrupted by ultrasonication. The homogenate was then centrifuged for 10 min at 1000×g and the supernatant was stored at −80° C. until subsequent use (see below). The protein content was determined by the Bradford method (BioRad, Munich) using BSA (Bovine serum albumin) as the standard.
PDE4B1 activities were measured in a 96-well platform using SPA (scintillation proximity assay) yttrium silicate beads (RPNQ1050 from GE Healthcare). In a first step the PDE activity operated hydrolysis of either [^3H] cAMP (substrate) into […]. In a second step substrate and product were distinguished following addition of SPA yttrium silicate beads. […] Close proximity of bound [^3H] […] The test volume was 100 μl and finally contained 20 mM Tris buffer (pH 7.4), 0.1 mg/ml of BSA, 5 mM Mg^2+, 0.5 μM cAMP (including about 50,000 cpm of [3H]cAMP) as substrate, 1 μl of the respective substance dilution in DMSO and sufficient recombinant PDE (1000×g supernatant, see above) to ensure that 10-20% of the cAMP was converted under the said experimental conditions. […] After a preincubation of 5 min at 37° C., the reaction was commenced by adding the substrate (cAMP) and the assays were incubated for a further 15 min. Reactions were terminated by adding SPA beads (50 μl). In agreement with the manufacturer's instructions, the SPA beads had previously been resuspended in water, but were then diluted 1:3 (v/v) in water. This diluted solution further contained 3 mM IBMX (isobutylmethylxanthine) to ensure a complete block of PDE activity. Once the beads were sedimented (>30 min), the MTP's (micro titerplate) were analyzed in commercially available […]. The corresponding IC50 values of the compounds for inhibition of PDE4B1 activity were determined from the concentration-effect curves by means of non-linear regression.
as §1

T2 sequence (Q07343 whole entry): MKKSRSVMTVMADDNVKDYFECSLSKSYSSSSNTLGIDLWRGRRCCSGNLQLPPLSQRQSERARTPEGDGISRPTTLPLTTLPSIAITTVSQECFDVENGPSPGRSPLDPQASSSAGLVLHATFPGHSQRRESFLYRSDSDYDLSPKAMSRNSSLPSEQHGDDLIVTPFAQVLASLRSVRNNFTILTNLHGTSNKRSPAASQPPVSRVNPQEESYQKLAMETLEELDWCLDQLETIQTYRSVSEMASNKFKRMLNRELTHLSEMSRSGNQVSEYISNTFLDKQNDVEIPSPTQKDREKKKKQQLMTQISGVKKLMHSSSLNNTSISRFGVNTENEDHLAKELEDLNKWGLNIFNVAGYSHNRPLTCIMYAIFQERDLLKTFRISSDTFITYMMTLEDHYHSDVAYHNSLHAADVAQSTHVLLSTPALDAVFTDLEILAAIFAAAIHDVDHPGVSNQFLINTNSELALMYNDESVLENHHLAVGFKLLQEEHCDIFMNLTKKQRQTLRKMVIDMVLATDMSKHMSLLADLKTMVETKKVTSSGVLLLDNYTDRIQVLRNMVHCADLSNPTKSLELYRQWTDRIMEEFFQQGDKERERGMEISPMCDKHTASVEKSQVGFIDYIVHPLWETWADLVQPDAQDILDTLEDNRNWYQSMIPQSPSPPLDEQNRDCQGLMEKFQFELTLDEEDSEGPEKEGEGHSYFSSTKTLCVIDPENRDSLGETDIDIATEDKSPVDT

As to `COc1ccc(C2=NN(C3CCN(C(=O)[C@@H](Cc4ccc(C#N)cc4)NC(=O)c4c[nH]c5c(-c6c(OCC7CC7)ccc7c6OCO7)ncnc45)CC3)C(=O)[C@@H]3CCCC[C@H]23)cc1OC` [Example 16, N-[(2R)-3-(4-cyanophenyl)-1-{4-[(4aS,8aR)-4-(3,4-dimethoxyphenyl)-1-oxo-4a,5,6,7,8,8a-hexahydrophthalazin-2(1H)-yl]piperidin-1-yl}-1-oxopropan-2-yl]-4-[5-(cyclopropylmethoxy)-1,3-benzodioxol-4-yl]-5H-pyrrolo[3,2-d]pyrimidine-7-carboxamide], the IC50 on human PDE5 and at PDE4B1 was 1 to 10 nM throughout.
For `COc1ccc(C2=NN(C3CCN(C(=O)[C@@H](Cc4cccc(C)c4)NC(=O)c4c(C)[nH]c5c(-c6c(OCC7CC7)ccc7c6OCO7)ncnc45)CC3)C(=O)[C@@H]3CCCC[C@H]23)cc1OC` [Example 17, 4-[5-(cyclopropylmethoxy)-1,3-benzodioxol-4-yl]-N-[(2R)-1-{4-[(4aS,8aR)-4-(3,4-dimethoxyphenyl)-1-oxo-4a,5,6,7,8,8a-hexahydrophthalazin-2(1H)-yl]piperidin-1-yl}-3-(3-methylphenyl)-1-oxopropan-2-yl]-6-methyl-5H-pyrrolo[3,2-d]pyrimidine-7-carboxamide], the IC50 at human PDE5 and at PDE4B1 was below 1 nM throughout.
Consider `COc1ccc(C2=NN(C3CCN(C(=O)[C@@H](Cc4ccc(F)c(F)c4)NC(=O)c4c(C)[nH]c5c(-c6c(OCC7CC7)ccc7c6OCO7)ncnc45)CC3)C(=O)[C@@H]3CCCC[C@H]23)cc1OC` [Example 18, 4-[5-(cyclopropylmethoxy)-1,3-benzodioxol-4-yl]-N-[(2R)-3-(3,4-difluorophenyl)-1-{4-[(4aS,8aR)-4-(3,4-dimethoxyphenyl)-1-oxo-4a,5,6,7,8,8a-hexahydrophthalazin-2(1H)-yl]piperidin-1-yl}-1-oxopropan-2-yl]-6-methyl-5H-pyrrolo[3,2-d]pyrimidine-7-carboxamide], for which the IC50 on human PDE5 was 1 to 10 nM; at PDE4B1, below 1 nM.
For the molecule `COc1ccc(C2=NN(C3CCN(C(=O)[C@@H](Cc4ccc(F)c(F)c4)NC(=O)c4c[nH]c5c(-c6c(OCC7CC7)ccc7c6OCO7)ncnc45)CC3)C(=O)[C@@H]3CCCC[C@H]23)cc1OC` [Example 19, 4-[5-(cyclopropylmethoxy)-1,3-benzodioxol-4-yl]-N-[(2R)-3-(3,4-difluorophenyl)-1-{4-[(4aS,8aR)-4-(3,4-dimethoxyphenyl)-1-oxo-4a,5,6,7,8,8a-hexahydrophthalazin-2(1H)-yl]piperidin-1-yl}-1-oxopropan-2-yl]-5H-pyrrolo[3,2-d]pyrimidine-7-carboxamide], the IC50 on human PDE5 and at PDE4B1 was 1 to 10 nM throughout.
Turning to `COc1ccc(C2=NN(C3CCN(C(=O)[C@@H](Cc4cccc(C)c4)NC(=O)c4c[nH]c5c(-c6c(OCC7CC7)ccc7c6OCO7)ncnc45)CC3)C(=O)[C@@H]3CCCC[C@H]23)cc1OC` [Example 20, 4-[5-(cyclopropylmethoxy)-1,3-benzodioxol-4-yl]-N-[(2R)-1-{4-[(4aS,8aR)-4-(3,4-dimethoxyphenyl)-1-oxo-4a,5,6,7,8,8a-hexahydrophthalazin-2(1H)-yl]piperidin-1-yl}-3-(3-methylphenyl)-1-oxopropan-2-yl]-5H-pyrrolo[3,2-d]pyrimidine-7-carboxamide], the IC50 at human PDE5 was below 1 nM; on PDE4B1, 1 to 10 nM.
The corresponding values for `COc1ccc(C2=NN(C3CCN(C(=O)[C@@H](Cc4ccc(C)cc4)NC(=O)c4c[nH]c5c(-c6c(OCC7CC7)ccc7c6OCO7)ncnc45)CC3)C(=O)[C@@H]3CCCC[C@H]23)cc1OC` [Example 21, 4-[5-(cyclopropylmethoxy)-1,3-benzodioxol-4-yl]-N-[(2R)-1-{4-[(4aS,8aR)-4-(3,4-dimethoxyphenyl)-1-oxo-4a,5,6,7,8,8a-hexahydrophthalazin-2(1H)-yl]piperidin-1-yl}-3-(4-methylphenyl)-1-oxopropan-2-yl]-5H-pyrrolo[3,2-d]pyrimidine-7-carboxamide] are below 1 nM and 1 to 10 nM.
Take `COc1cc(OCC2CC2)c(-c2ncnc3c(C(=O)N[C@H](Cc4ccccc4)C(=O)N4CCC(N5N=C(c6ccc(OC)c(OC)c6)[C@H]6CCCC[C@H]6C5=O)CC4)c(C)[nH]c23)cc1F` [Example 22, 4-[2-(cyclopropylmethoxy)-5-fluoro-4-methoxyphenyl]-N-[(2R)-1-{4-[(4aS,8aR)-4-(3,4-dimethoxyphenyl)-1-oxo-4a,5,6,7,8,8a-hexahydrophthalazin-2(1H)-yl]piperidin-1-yl}-1-oxo-3-phenylpropan-2-yl]-6-methyl-5H-pyrrolo[3,2-d]pyrimidine-7-carboxamide]: the IC50 at human PDE5 and at PDE4B1 was 1 to 10 nM each time.
`COc1cc(OCC2CC2)c(-c2ncnc3c(C(=O)N[C@H](Cc4ccccc4)C(=O)N4CCC(N5N=C(c6ccc(OC)c(OC)c6)[C@H]6CCCC[C@H]6C5=O)CC4)c[nH]c23)cc1F` [Example 23, 4-[2-(cyclopropylmethoxy)-5-fluoro-4-methoxyphenyl]-N-[(2R)-1-{4-[(4aS,8aR)-4-(3,4-dimethoxyphenyl)-1-oxo-4a,5,6,7,8,8a-hexahydrophthalazin-2(1H)-yl]piperidin-1-yl}-1-oxo-3-phenylpropan-2-yl]-5H-pyrrolo[3,2-d]pyrimidine-7-carboxamide]: the IC50 on human PDE5 and at PDE4B1 was 1 to 10 nM throughout.

The record behind these values is patent US20160108049A1 (TAKEDA Gmbh, priority 2011, published 2016).
